Columns and labels:
Format in all cases: cell-based
[1] = tested on: Colo357FG pancreatic cancer cell line; test: Antiproliferative activity, MTT cell viability; conditions: COLO 357/FG
Method: The antiproliferative activity of the Compound of Example 1 and Example 7 have been shown in a Colo357FG pancreatic cancer cell line as follows:
(§1) A variety of cell types were seeded at a density of 50,000 cells/100 μl per well onto 96-well plates and cultured for 24-48 h in DMEM medium until they reached confluency. At confluency, 25 μl of fresh media containing WP1220 at various concentrations (0 to 100 μM) was added to the wells and incubated for 72 h at 37° C. The complex was removed, 100 μl of fresh medium was added and the cells were incubated overnight. Medium was removed and fresh medium (100 μl) was added to each well along with (20 μl) MTT solution (5 mg/ml in PBS) before incubating the cells for a further 4 h at 37° C. The reaction product was solubilised with sodium dodecyl sulfate (100 μl, 10%, w/v) in 0.01 N HCl overnight before quantifying the product using a microplate reader at 590 nm and comparing with control cells. The experiment was carried out in triplicate (n=3).

STAT3 = test: Western blot, inhibition of STAT3 phosphorylation in Colo357FG tumor cell line; conditions: FIG. 1
Method: (§2) Using phospho-tyrosine STAT3 (Y705), phospho-tyrosine Jak2 (Y1007/1008), total STAT3, total Jak2, Bcl-xL, actin (Cell Signaling Technology, Danvers, Mass.), and survivin (R&D Systems, Minneapolis, Minn.) antibodies, western blots were performed using the following methods. Briefly, (1) Samples were prepared from cells that were homogenized in a buffer protecting the protein of interest from degradation; (2) The sample was then separated using SDS-PAGE (10-15 μg protein/well) and then transferred to a membrane for detection; and (3) The membrane was incubated with a generic protein (milk proteins) to bind to any remaining sites on the membrane. A primary antibody was then added to the solution which is able to bind to its specific protein; (4) A secondary antibody-enzyme conjugate, which recognizes the primary antibody was then added to find locations where the primary antibody has bound.

[2] = tested on: SCOVE3 ovarian cancer cell; test: SCOVE3 ovarian cancer cell growth (MTT); conditions: SCOVE3, FIG. 3
Method: as §1

U87 brain tumor = test: Cell survival of U87 brain tumor (MTT); conditions: U87, FIG. 2
Method: as §1

STAT-3 = test: Western blot, STAT-3 phosphorylation in D54 brain tumor cell lines; conditions: FIG. 4
Method: as §2

Structure (SMILES) | IC50 [1] | inhibition of SCOVE3 ovarian cancer cell growth [2] | cell survival of the U87 brain tumor (U87 brain tumor) | also measured
N#C/C(=C\C=C\c1cccc(Br)n1)C(=O)N[C@H](c1ccccc1)C1CC1 [Example 7, (2E,4E)-5-(6-bromopyridin-2-yl)-2-cyano-N-[(S)-cyclopropyl(phenyl)methyl]penta-2,4-dienamide] | 5.4 µM | – | – | –
C[C@H](NC(=O)/C(C#N)=C/C=C/c1cccc(Br)n1)c1ccccc1 [Example 1, (2E,4E)-5-(6-bromopyridin-2-yl)-2-cyano-N-[(1S)-1-phenylethyl]penta-2,4-dienamide] | 3.2 µM | – | – | inhibition of STAT3 phosphorylation (STAT3): inhibition of STAT3 phosphorylation
C[C@H](NC(=O)/C(C#N)=C/C=C/c1cccc(Cl)n1)c1ccccc1 [Example 2, (2E,4E)-5-(6-chloropyridin-2-yl)-2-cyano-N-[(1S)-1-phenylethyl]penta-2,4-dienamide] | – | inhibition of the SCOVE3 ovarian cancer cell growth | lack of cell survival | –
CCC[C@H](NC(=O)/C(C#N)=C/C=C/c1cccc(Br)n1)c1ccccc1 [Example 9, (2E,4E)-5-(6-bromopyridin-2-yl)-2-cyano-N-[(1S)-1-phenylbutyl]penta-2,4-dienamide] | – | – | – | inhibition of IL-2 phosphorylation of STAT-3 (STAT-3): constitutively inhibiting the IL-2 phosphorylation of STAT-3
N#C/C(=C\C=C\c1cccc(Br)n1)C(=O)NCc1ccccc1 [Example 4, (2E,4E)-N-benzyl-5-(6-bromopyridin-2-yl)-2-cyanopenta-2,4-dienamide] | – | inhibition of the SCOVE3 ovarian cancer cell growth | lack of cell survival | –

From patent US9000179B2, “Inhibitors of proliferation and activation of signal transducer and activator of transcription (STATs)” (Board of Regents, The University of Texas System, priority 2008, dated 2015)
